For 28 compounds, EC50, IC50 and outcome results are on record in PubChem BioAssay AID179 (DTP/NCI, 2004).

For this assay, the system named is CEM cells HIV-1 protection, formazan growth assay. Description: NCI AIDS Antiviral Assay. The following applies: for IC50: measured here: growth of uninfected CEM cells. The method in brief:
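Soluble formazan readout of cell growth; CEM cells ± HIV-1; 5 drug concs. ≥50% protection → retest; ≥50% again = moderately active; reproducible 100% = confirmed active.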

Values joined by “and” are separate entries in the source; they are usually repeats but may differ in a detail not shown here. Equal values may be shown once. Active and inactive are the calls of the source.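 The calls were made as follows: active = compounds giving half or more protection of infected cells from virus-caused growth loss, again on retest; inactive = the rest.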

`Cc1cccc(C2NC(=O)N3C(c4cccc(C)c4)NC(=O)N23)c1` (configuration not stated): the EC50 was over 200 µM and the half-inhibitory concentration (IC50) came to 38 µM. As to `COc1ccc2c(=O)c(-c3ccc(OC)c(OC)c3)c(C)oc2c1`, the EC50 was over 200 µM and the IC50 is over 200 µM. Take `CCOC(=O)c1cn(CC)c(=O)n2c1nc1ccccc12`: the EC50 was over 200 µM and the IC50 stood at 117 µM.

As to `COc1cc2c(cc1OC)-c1c(cc(OC)c(OC)c1OC)C2=O`, the result was inactive.

`COC(=O)C(C)S(=O)(=O)O` (configuration not stated): the EC50 is over 200 µM and the half-maximal inhibitory concentration (IC50) is over 200 µM. With `Cc1oc2c(C)c3oc(=O)cc(C)c3cc2c1CN`, the EC50 was over 50.1 µM and the IC50 was 7.08 µM. As for `CC(C)(C)OC(=O)NC(Cc1ccccc1)NC(=O)NC(=O)OCc1ccccc1` (configuration not stated), the EC50 is over 200 µM and the IC50 was determined as 112 µM. On the same counts, the results for `Oc1ccc(C[C@@H]2CN[C@H](Cc3ccc(O)c(Br)c3)CN2)cc1` are over 200 µM and over 200 µM.

`O=C1C=C(Nc2ccccc2C(=O)CC(=O)C(=O)Nc2cccc(C(F)(F)F)c2)c2ccccc2C1=O`: the EC50 was over 37.2 µM and the IC50 turned out to be 6.61 µM.

Consider `O=C(Nc1nc2c(ncn2C2OC(CO)C(O)C2O)c(=O)[nH]1)c1ccccc1` (configuration not stated), for which the EC50 is over 646 µM and the IC50 was determined as 251 µM. The corresponding values for `O=c1[nH]c2ccc([N+](=O)[O-])cc2nc1/C=C(\O)c1ccccc1` are over 200 µM and over 200 µM. On the same counts, the results for `CCOP(=O)(CC(=O)c1ccccc1)OCC` are over 977 µM and over 977 µM. Take `COc1ccc(N=Nc2c(N)nn3cc4c(nc23)CCC4)cc1`: the result was inactive. With `Cc1onc(-c2c(Cl)cccc2Cl)c1C(=O)SC1=NC(C)N2C(SC(=O)c3c(-c4c(Cl)cccc4Cl)noc3C)=NC(C)N12` (configuration not stated), the EC50 was over 19.1 µM and the IC50 was 18.2 µM.

Turning to `CC(=O)OCC1OC(n2c(-c3ccc(C)cc3)cc(-c3ccco3)c(C#N)c2=S)C(OC(C)=O)C(OC(C)=O)C1OC(C)=O` (configuration not stated), the EC50 is over 200 µM and the IC50 was 155 µM.

Take `C/C(C(=O)O)=C(\C)c1ccccc1`: the EC50 was over 200 µM and the concentration for half-maximal inhibition (IC50) is over 200 µM.

`CCC(C#N)NCc1cccc(CNC(C#N)CC)c1` (configuration not stated): the EC50 is over 200 µM and the 50% inhibitory concentration (IC50) is over 200 µM.

As for `Cc1cc(Br)c2nsnc2c1[N+](=O)[O-]`, the EC50 is over 26.3 µM and the IC50 was 2.57 µM.

Take `CN(/N=C/c1cccc2cccnc12)c1ccc(Cl)cc1[N+](=O)[O-]`: the EC50 is over 200 µM and the IC50 stood at 178 µM. Turning to `Cc1ccc(S(=O)(=O)/N=C2/N(C)CCCS2(=O)=O)cc1`, the EC50 is over 200 µM and the concentration for half-maximal inhibition (IC50) was over 200 µM. As for `O=C1CCC(=O)N1Sc1ccccc1`, the result was inactive. `S=C(c1c[nH]c2ccccc12)N1CCOCC1`: the EC50 is over 200 µM and the half-inhibitory concentration (IC50) was over 200 µM. With `Clc1ccc(SSc2ccc(Cl)cn2)nc1`, the EC50 was over 200 µM and the IC50 is 20.4 µM. The corresponding values for `COC(=O)c1cc(C#N)[nH]c1-c1cccs1` are over 200 µM and 40.7 µM. Turning to `OCC1OC2(CCCC3CC32)O[C@H]1CO` (some centres not stated), the result was inactive. With `O=C1/C(=N\N(C(=O)c2ccccc2)c2ccccc2)c2cccc3cccc1c23`, the EC50 is over 3.8 µM and the IC50 was over 3.8 µM. As to `C=CCCCCO/N=C/c1c2c(O)c3c(O)c(C)c4c(c3c1O)C(=O)C(C)(O/C=C/C(OC)C(C)C(OC(C)=O)C(C)C(O)C(C)C(O)C(C)/C=C/C=C(\C)C(=O)N2)O4` (configuration not stated), the EC50 was over 200 µM and the IC50 was 7.41 µM. On to `O=C(Nc1cccc2c(OC(=O)C(Cl)Cl)c(N=Nc3ccc(S(=O)(=O)Nc4nccs4)cc3)cc(N=Nc3ccc(S(=O)(=O)Nc4nccs4)cc3)c12)C(Cl)Cl` (tested in a mixture with another compound), for which the EC50 was 46.8 µM and > 50.1 µM; the result was inactive.

Usually EC50 stands for the concentration needed to bring the measured effect to its halfway point. By IC50 is commonly meant the concentration at which inhibition is half-maximal.
